Results: US11331299B2, “Medicinal use of serrulatane diterpenes” (The University of Sydney, priority 2016, dated 2022)
Read-outs that look alike come from different tables or passages of the source.

Tests used:
[1] = molecular target: T1, Angiotensin Converting Enzyme (Oryctolagus cuniculus, UniProt P12822); experiment: Peptidase, Angiotensin Converting Enzyme; type: biochemical, Rabbit; settings: assay year 2015
T1 construct: from tissue; host or cells: rabbit lung
T1 sequence (P12822 34-1310): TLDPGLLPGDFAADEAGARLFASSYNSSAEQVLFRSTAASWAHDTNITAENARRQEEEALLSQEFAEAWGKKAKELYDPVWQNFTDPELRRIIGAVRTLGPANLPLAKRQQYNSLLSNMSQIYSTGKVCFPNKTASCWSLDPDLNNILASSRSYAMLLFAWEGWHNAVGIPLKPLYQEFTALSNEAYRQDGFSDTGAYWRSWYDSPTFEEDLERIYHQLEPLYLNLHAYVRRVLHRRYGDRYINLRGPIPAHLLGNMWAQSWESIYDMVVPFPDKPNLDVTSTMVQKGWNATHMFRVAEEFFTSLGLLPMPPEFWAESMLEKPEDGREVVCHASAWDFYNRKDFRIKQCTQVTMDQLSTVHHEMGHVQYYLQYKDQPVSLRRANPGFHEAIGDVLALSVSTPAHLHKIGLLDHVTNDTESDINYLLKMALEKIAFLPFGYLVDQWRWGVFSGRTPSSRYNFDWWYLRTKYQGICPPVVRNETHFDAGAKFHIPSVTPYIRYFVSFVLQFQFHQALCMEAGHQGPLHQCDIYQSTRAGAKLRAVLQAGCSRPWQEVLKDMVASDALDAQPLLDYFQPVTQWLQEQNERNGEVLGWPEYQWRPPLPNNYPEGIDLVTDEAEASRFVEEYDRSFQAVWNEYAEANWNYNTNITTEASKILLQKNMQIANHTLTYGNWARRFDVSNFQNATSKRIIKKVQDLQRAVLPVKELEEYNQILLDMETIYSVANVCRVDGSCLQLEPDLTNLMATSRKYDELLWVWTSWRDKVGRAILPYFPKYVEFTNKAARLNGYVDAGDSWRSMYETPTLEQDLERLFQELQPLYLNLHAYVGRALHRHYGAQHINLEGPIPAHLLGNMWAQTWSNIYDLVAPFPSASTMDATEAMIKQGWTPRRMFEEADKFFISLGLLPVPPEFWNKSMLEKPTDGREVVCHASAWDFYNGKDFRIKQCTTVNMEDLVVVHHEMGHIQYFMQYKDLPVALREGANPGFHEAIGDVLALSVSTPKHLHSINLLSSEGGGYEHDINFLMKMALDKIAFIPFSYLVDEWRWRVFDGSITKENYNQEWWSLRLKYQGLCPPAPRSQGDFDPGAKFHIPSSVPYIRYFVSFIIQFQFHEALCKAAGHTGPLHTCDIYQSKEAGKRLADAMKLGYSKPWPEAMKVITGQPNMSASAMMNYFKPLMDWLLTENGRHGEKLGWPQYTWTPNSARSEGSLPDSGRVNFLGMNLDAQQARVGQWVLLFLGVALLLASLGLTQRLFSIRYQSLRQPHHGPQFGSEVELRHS
Method: (§1) The in vitro pharmacological studies were conducted by Eurofins PanLab (Taiwan) using the parameters shown in Table 13 with respect to appropriate literature references.

[2] = molecular target: T2, Haspin (h) (substrate histone H3 full length) (Homo sapiens, UniProt Q8TF76); experiment: Epigenetic enzyme assay, Kinases; type: biochemical; settings: read-out: % Inhibition of Control Values
T2 sequence (Q8TF76 1-798): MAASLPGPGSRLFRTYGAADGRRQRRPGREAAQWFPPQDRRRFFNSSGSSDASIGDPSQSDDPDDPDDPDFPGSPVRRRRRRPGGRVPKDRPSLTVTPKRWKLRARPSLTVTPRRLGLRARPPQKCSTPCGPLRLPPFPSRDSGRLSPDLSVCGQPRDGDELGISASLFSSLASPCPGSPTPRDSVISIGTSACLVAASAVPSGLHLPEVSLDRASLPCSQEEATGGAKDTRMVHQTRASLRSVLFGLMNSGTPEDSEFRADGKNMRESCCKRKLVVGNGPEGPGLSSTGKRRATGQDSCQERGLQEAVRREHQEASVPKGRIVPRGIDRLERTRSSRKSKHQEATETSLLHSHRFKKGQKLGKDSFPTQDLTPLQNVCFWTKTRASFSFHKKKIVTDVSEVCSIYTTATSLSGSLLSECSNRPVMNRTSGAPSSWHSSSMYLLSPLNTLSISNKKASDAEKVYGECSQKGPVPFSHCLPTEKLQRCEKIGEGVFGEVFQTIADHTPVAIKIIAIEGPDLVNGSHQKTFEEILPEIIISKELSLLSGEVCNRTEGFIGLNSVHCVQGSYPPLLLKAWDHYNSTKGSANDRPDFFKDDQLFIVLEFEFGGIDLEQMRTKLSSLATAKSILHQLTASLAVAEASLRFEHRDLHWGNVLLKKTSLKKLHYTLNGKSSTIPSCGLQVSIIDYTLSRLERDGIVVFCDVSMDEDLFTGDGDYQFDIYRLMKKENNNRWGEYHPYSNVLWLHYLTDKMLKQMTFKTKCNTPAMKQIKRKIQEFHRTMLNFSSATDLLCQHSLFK

Histamine H1 = molecular target: T3, Histamine H1 (Homo sapiens, UniProt P35367); experiment: Histamine H1 radio ligand binding
T3 construct: expressed in transfected cells; host or cells: Chem-1 cells
T3 sequence (P35367 whole entry): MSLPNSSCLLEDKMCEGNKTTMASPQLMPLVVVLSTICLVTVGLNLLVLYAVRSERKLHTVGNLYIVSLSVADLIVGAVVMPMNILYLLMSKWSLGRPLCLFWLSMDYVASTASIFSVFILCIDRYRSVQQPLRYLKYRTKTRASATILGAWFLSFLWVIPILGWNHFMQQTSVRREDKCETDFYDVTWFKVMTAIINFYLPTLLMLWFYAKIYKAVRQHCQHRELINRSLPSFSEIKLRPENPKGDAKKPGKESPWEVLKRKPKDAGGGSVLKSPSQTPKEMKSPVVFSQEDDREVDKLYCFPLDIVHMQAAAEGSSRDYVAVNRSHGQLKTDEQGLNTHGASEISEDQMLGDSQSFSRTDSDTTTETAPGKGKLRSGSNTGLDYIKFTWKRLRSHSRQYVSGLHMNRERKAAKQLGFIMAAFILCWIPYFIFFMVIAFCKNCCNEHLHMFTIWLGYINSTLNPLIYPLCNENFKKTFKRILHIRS
Method: as §1

BRD3(1) (h) bromodomain = molecular target: T4, BRD3(1) (h) bromodomain (Homo sapiens, UniProt Q15059); experiment: Epigenetic binding assay, Bromodomain; settings: read-out: % Inhibition of Control Specific Binding
T4 construct: Bromodomain
T4 sequence (Q15059 34-140 limits assumed): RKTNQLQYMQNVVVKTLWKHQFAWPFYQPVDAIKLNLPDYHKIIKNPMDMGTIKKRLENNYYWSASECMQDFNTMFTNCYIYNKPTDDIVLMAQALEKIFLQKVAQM

[3] = system: A204 (soft tissue sarcoma); experiment: OncoPanel cell proliferation assay (10-day); type: cell-based; settings: Homo sapiens; for EC50: read-out: Cell Count EC50; for IC50: read-out: Cell Count IC50
DNMT3B/DNMT3L (h) = DNMT3B/DNMT3L (h) (Homo sapiens, UniProt Q9UBC3); experiment: Epigenetic enzyme assay, DNA methyltransferases (DNMTs); type: biochemical; settings: for inhibition at 10 µM: read-out: % Inhibition of Control Values
[4] = assay year 2014, read-out: % Control Response
[5] = assay year 2015, read-out: % Control Response
[6] = A204, Soft Tissue - Sarcoma, read-out: Cell Count GI50

Row | SMILES | % control response at 10 µM [1] [%] | inhibition at 10 µM [2] [%] | remaining activity at 10 µM (Histamine H1; [4]) [%] | remaining activity at 10 µM (Histamine H1; [5]) [%] | inhibition at 10 µM (BRD3(1) (h) bromodomain) [%] | EC50 ([3]; A204, Soft Tissue - Sarcoma) [nM] | GI50 [3, 6] [nM] | IC50 ([3]; A204, Soft Tissue - Sarcoma) [nM] | inhibition at 10 µM (DNMT3B/DNMT3L (h)) [%] | GI50 ([3]; A204, read-out: GI50) [nM] | IC50 (DNMT3B/DNMT3L (h); read-out: Reference IC50) [nM]
1 | CC(C)=CCC[C@H](CO)[C@@H]1CC[C@@H](C)c2c1cc(C)c(O)c2O [Compound 1, 7,8,18-trihydroxyserrulat-14-ene] | 0 | 2 | 85 | 97 | 47 | 520 | 520 | 540 | 23 |  | 
2 | CC(C)=CCC[C@@H]1C(O)Oc2c(C)cc(O)c3c2[C@H]1CC[C@H]3C (stereo partly shown) [Compound 2, 5,18-epoxyserrulat-14-en-8,18-diol] | -3 | 11 | 66 | 60 | 17 | 8460 | 8500 | 8540 | 27 |  | 
3 | CC(C)=CCC[C@@H]1COc2c(C)cc(O)c3c2[C@H]1CC[C@H]3C [Compound 3, 5,18-epoxy-8-hydroxyserrulat-14-ene] | -3 | 7 |  | 50 | 13 |  |  |  | -20 |  | 
4 | CC(C)=CCC[C@H](C)[C@@H]1CC[C@@H](C)c2c1cc(C)c(O)c2O [Compound 4, 7,8-dihydroxyserrulat-14-ene] |  |  |  |  |  | 720 | 680 | 720 |  | 684 | 
5 | Nc1ncnc2c1ncn2[C@@H]1O[C@H](CSCC[C@H](N)C(=O)O)[C@@H](O)[C@H]1O [SAH] |  |  |  |  |  |  |  |  |  |  | 45
